Substitutions are numbered along the chain they refer to. pIC50: −log10 of the molar value.
Legend:
ABCG2 [1] = target: T1, ABCG2 (Homo sapiens, UniProt Q9UNQ0); test: inhibition of […]-IAAP photoaffinity labeling in membranes; format: binding
T1 sequence (Q9UNQ0 1-655): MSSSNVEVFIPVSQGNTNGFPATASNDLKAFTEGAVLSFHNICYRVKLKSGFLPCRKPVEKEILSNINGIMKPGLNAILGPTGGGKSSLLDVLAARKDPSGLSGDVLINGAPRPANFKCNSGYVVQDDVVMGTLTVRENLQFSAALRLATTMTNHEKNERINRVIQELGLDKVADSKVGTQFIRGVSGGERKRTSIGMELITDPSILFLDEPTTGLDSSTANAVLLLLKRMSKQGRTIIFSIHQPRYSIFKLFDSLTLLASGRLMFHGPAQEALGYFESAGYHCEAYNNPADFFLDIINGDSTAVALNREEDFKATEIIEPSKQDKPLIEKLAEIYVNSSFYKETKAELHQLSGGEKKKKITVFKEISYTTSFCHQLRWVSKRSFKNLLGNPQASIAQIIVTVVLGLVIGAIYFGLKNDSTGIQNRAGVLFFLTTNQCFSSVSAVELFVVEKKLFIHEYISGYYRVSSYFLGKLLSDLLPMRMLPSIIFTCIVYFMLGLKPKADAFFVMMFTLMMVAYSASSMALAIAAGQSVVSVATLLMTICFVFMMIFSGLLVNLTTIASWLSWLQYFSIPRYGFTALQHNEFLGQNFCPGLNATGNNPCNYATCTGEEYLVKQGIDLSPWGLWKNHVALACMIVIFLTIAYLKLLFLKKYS

ABCG2 [2] = target: T2, ABCG2 (Homo sapiens, UniProt Q9UNQ0, R482G); test: [3H]-mitoxantrone accumulation in transfected cells; format: cell-based
T2 sequence (Q9UNQ0 1-655 R482G): T1 sequence (Q9UNQ0 1-655) with R482G

ABCG2 [3] = target: T3, ABCG2 (Homo sapiens, UniProt Q9UNQ0, R482T); test: as above; format: cell-based
T3 sequence (Q9UNQ0 1-655 R482T): T1 sequence (Q9UNQ0 1-655) with R482T

## C[C@@H]1COC(Nc2ccc3ncnc(Nc4ccc(OCc5nccs5)c(Cl)c4)c3c2)=N1 [ARRY-334543]
ABCG2 [1]
  pIC50: 5.43
ABCG2 [2]
  [3H]-mitoxantrone accumulation in transfected cells (0.25 and 1.0 μM): significantly increased intracellular levels of [^3H]-MX in the NCI-H460, NCI-H460/MX20, ABCG2-482-R2, ABCG2-482-G2, and ABCG2-482-T7 cells
ABCG2 [3]
  [3H]-mitoxantrone accumulation in transfected cells (0.25 and 1.0 μM): significantly increased intracellular levels of [^3H]-MX in the NCI-H460, NCI-H460/MX20, ABCG2-482-R2, ABCG2-482-G2, and ABCG2-482-T7 cells
